The text below walks through data of patent US7071334B2, “6-(2-chloro-6-fluoro-phenyl)-triazolopyrimidines” (priority 2001, dated 2006).

SMILES strings stand for the structures.

Common to all, as to format: in vivo
Test [1] concerns Pyrenophora teres. The test can be described thus: Comparison Test 2: Control of net blotch on barley. Particulars: barley treated with 250 ppm, inoculated next day, assessed after 6 days; untreated 100%.
Test [2] deals with Alternaria solani. Nature of the test: Comparison Test 1: Fungicidal control of early blight on tomatoes. Particulars: another trial, tomato plants treated with 16 ppm; untreated 90%.
Test [3] relates to Sphaerotheca fuliginea. The test can be described thus: Comparison Test 5: Protective control of powdery mildew on cucumber. Conditions: cucumber seedlings treated with 16 ppm, inoculated next day, assessed after 8 days; untreated 100%. On the procedure:
Cucumber seedlings of the variety “Chinesische Schlange” were grown in pots to the 2 leaf stage. The plants were then sprayed to run-off with an aqueous suspension, containing the concentration of active ingredient as described below, prepared from a stock solution containing 10% of the active ingredient, 85% cyclohexanone and 5% emulsifier. The next day the treated plants were inoculated with an aqueous spore suspension of cucumber powdery mildew (Sphaerotheca fuliginea). Then the trial plants were cultivated in a greenhouse at temperatures between 20 and 24° C. and a relative humidity between 60 and 80.%. After 8 days the extent of fungal attack on the leaves was visually assessed as % diseased leaf area.

For test [4], the system named is Septoria tritici. Nature of the test: Comparison Trial 3: Fungicidal control of leaf blotch on wheat (protective). Conditions: wheat seedlings treated with 63 ppm, inoculated following day, assessed after 2 weeks; untreated 90%.

Turning to `COc1nc2ncnn2c(C2CCCCC2)c1-c1c(F)cccc1Cl` [C], in test [1], the “infection (% diseased leaf area)” value was found to be 100%.

As to `N#Cc1nc2ncnn2c(C2CCCCC2)c1-c1c(F)cccc1Cl` [D], in test [1], the “infection (% diseased leaf area)” value is 100%.

For the molecule `Cc1nc2ncnn2c(N2CCC(C)CC2)c1-c1c(F)cccc1Cl` [E], the “infection (% diseased leaf area)” value is given as 30% in test [2] and 90% in test [3].

Consider `CCN(CC)c1c(-c2c(F)cccc2Cl)c(C#N)nc2ncnn12` [I-5], for which, in test [4], the “infection (% diseased leaf area)” value is recorded as “no infection”.
